≈ marks a conversion by molar mass, not a printed value.
Legend:
Assay type in all cases: cell-based
[1] = system: Mannheimia haemolytica MH 13065 (XB0446-6003.9, BRD field isolate); test: MIC, broth-microdilution (CLSI VET01-A4), strain MH 13065; conditions: Mannheimia haemolytica strain MH 13065, broth-microdilution; unit assumed
Method in brief: (§1)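 The compound was titrated in twofold steps in microdilution trays. Absence of turbidity, checked without instruments, marked the MIC at the lowest such concentration.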

[2] = system: Mannheimia haemolytica MH 6357 (M7/2, reference strain, cattle infection strain); test: MIC, broth-microdilution (CLSI VET01-A4), strain MH 6357; conditions: Mannheimia haemolytica strain MH 6357, broth-microdilution; unit assumed
Method in brief: as §1

[3] = system: Pasteurella multocida PM 6267 (P 2225 (L386), reference strain, mouse infection strain); test: MIC, broth-microdilution (CLSI VET01-A4), strain PM 6267; conditions: Pasteurella multocida strain PM 6267, broth-microdilution; unit assumed
Method in brief: as §1

[4] = system: Mannheimia haemolytica MH 10720 (154, BRD field isolate); test: MIC, broth-microdilution (CLSI VET01-A4), strain MH 10720; conditions: Mannheimia haemolytica strain MH 10720, broth-microdilution; unit assumed
Method in brief: as §1

[5] = system: Mannheimia haemolytica MH 13093 (XB0472-6014.1, BRD field isolate); test: MIC, broth-microdilution (CLSI VET01-A4), strain MH 13093; conditions: Mannheimia haemolytica strain MH 13093, broth-microdilution; unit assumed
Method in brief: as §1

[6] = system: Pasteurella multocida PM 12080 (IV102277-0093, BRD field isolate); test: MIC, broth-microdilution (CLSI VET01-A4), strain PM 12080; conditions: Pasteurella multocida strain PM 12080, broth-microdilution; unit assumed
Method in brief: as §1

[7] = system: Pasteurella multocida PM 6391 (ATCC 43137, reference strain); test: MIC, broth-microdilution (CLSI VET01-A4), strain PM 6391; conditions: Pasteurella multocida strain PM 6391, broth-microdilution; unit assumed
Method in brief: as §1

[8] = system: Mannheimia haemolytica MH 12587 (1071, BRD field isolate, macrolide-resistance: erm+, E+); test: MIC, broth-microdilution (CLSI VET01-A4), strain MH 12587; conditions: Mannheimia haemolytica strain MH 12587, broth-microdilution; unit assumed
Method in brief: as §1

[9] = system: Pasteurella multocida PM 10775 (080130003051, BRD field isolate); test: MIC, broth-microdilution (CLSI VET01-A4), strain PM 10775; conditions: Pasteurella multocida strain PM 10775, broth-microdilution; unit assumed
Method in brief: as §1

[10] = system: Mannheimia haemolytica MH 6374 (ATCC 33396, reference strain); test: MIC, broth-microdilution (CLSI VET01-A4), strain MH 6374; conditions: Mannheimia haemolytica strain MH 6374, broth-microdilution; unit assumed
Method in brief: as §1

SMILES	MIC PM 6267 [3]	MIC PM 12080 [6]	MIC PM 6391 [7]	MIC PM 10775 [9]	MIC MH 13065 [1]	MIC MH 6357 [2]	MIC MH 10720 [4]	MIC MH 13093 [5]	MIC MH 12587 [8]	MIC MH 6374 [10]
CC(C)([C@H](NC(=O)c1ccc(C#Cc2ccc(CNCc3ccccc3)cc2)cc1)C(=O)NO)S(C)(=O)=O [C.259]	≤ 0.1 µg/mL	≤ 0.1 µg/mL	≤ 0.1 µg/mL	≤ 0.1 µg/mL	0.4 µg/mL (≈ 0.75 µM)	0.8 µg/mL (≈ 1.5 µM)	≤ 0.1 µg/mL	0.8 µg/mL (≈ 1.5 µM)	0.8 µg/mL (≈ 1.5 µM)	0.4 µg/mL (≈ 0.75 µM)
CSC(C)(C)[C@H](NC(=O)c1ccc(C#Cc2ccc(CN3CCOCC3)s2)cc1)C(=O)NO [Compound 303]	1.6 µg/mL (≈ 3.28 µM)	0.4 µg/mL (≈ 0.82 µM)	0.4 µg/mL (≈ 0.82 µM)	≤ 0.1 µg/mL	1.6 µg/mL (≈ 3.28 µM)	0.2 µg/mL (≈ 0.41 µM)	0.4 µg/mL (≈ 0.82 µM)	1.6 µg/mL (≈ 3.28 µM)	1.6 µg/mL (≈ 3.28 µM)	1.6 µg/mL (≈ 3.28 µM)
O=C(N[C@@H](CO)C(=O)NO)c1ccc(C#Cc2ccc(CNCc3ccnc(Cl)c3)cc2)cc1 [Compound 214]	0.2 µg/mL (≈ 0.418 µM)	0.4 µg/mL (≈ 0.835 µM)	0.4 µg/mL (≈ 0.835 µM)	≤ 0.1 µg/mL	3.1 µg/mL (≈ 6.47 µM)	1.6 µg/mL (≈ 3.34 µM)	0.8 µg/mL (≈ 1.67 µM)	3.1 µg/mL (≈ 6.47 µM)	6.3 µg/mL (≈ 13.2 µM)	1.6 µg/mL (≈ 3.34 µM)
CC(C)[C@H](NC(=O)c1ccc(C#Cc2ccc(CN3CCCCC3)cc2)cc1)C(=O)NO [Compound 166]	0.2 µg/mL (≈ 0.461 µM)	0.4 µg/mL (≈ 0.923 µM)	0.8 µg/mL (≈ 1.85 µM)	≤ 0.1 µg/mL	6.3 µg/mL (≈ 14.5 µM)	3.1 µg/mL (≈ 7.15 µM)	0.8 µg/mL (≈ 1.85 µM)	6.3 µg/mL (≈ 14.5 µM)	6.3 µg/mL (≈ 14.5 µM)	6.3 µg/mL (≈ 14.5 µM)

Now from value to molecule, other results behind:

MIC PM 6267 [3]	MIC PM 12080 [6]	MIC PM 6391 [7]	MIC PM 10775 [9]	SMILES	MIC MH 13065 [1]	MIC MH 6357 [2]	MIC MH 10720 [4]	MIC MH 13093 [5]	MIC MH 12587 [8]	MIC MH 6374 [10]
≤ 0.1 µg/mL	≤ 0.1 µg/mL	0.2 µg/mL (≈ 0.394 µM)	≤ 0.1 µg/mL	CSC(C)(C)[C@H](NC(=O)c1ccc(C#Cc2ccc(CNCc3cccs3)cc2)cc1)C(=O)NO [Compound 251]	0.8 µg/mL (≈ 1.58 µM)	0.8 µg/mL (≈ 1.58 µM)	≤ 0.1 µg/mL	0.8 µg/mL (≈ 1.58 µM)	1.6 µg/mL (≈ 3.15 µM)	0.8 µg/mL (≈ 1.58 µM)
0.2 µg/mL (≈ 0.437 µM)	0.2 µg/mL (≈ 0.437 µM)	0.8 µg/mL (≈ 1.75 µM)	≤ 0.1 µg/mL	Cc1ccc(CNCc2ccc(C#Cc3ccc(C(=O)N[C@@H](CO)C(=O)NO)cc3)cc2)cc1 [Compound 161]	3.1 µg/mL (≈ 6.78 µM)	1.6 µg/mL (≈ 3.5 µM)	0.8 µg/mL (≈ 1.75 µM)	6.3 µg/mL (≈ 13.8 µM)	6.3 µg/mL (≈ 13.8 µM)	1.6 µg/mL (≈ 3.5 µM)
1.6 µg/mL (≈ 3.38 µM)	0.4 µg/mL (≈ 0.845 µM)	0.8 µg/mL (≈ 1.69 µM)	≤ 0.1 µg/mL	CC(C)(O)[C@H](NC(=O)c1ccc(C#Cc2ccc(CNCc3cccnc3)nc2)cc1)C(=O)NO [Compound 330]	1.6 µg/mL (≈ 3.38 µM)	0.8 µg/mL (≈ 1.69 µM)	0.2 µg/mL (≈ 0.422 µM)	1.6 µg/mL (≈ 3.38 µM)	3.1 µg/mL (≈ 6.55 µM)	0.8 µg/mL (≈ 1.69 µM)
≤ 0.1 µg/mL	≤ 0.1 µg/mL	≤ 0.1 µg/mL	≤ 0.1 µg/mL	CC(C)(O)[C@H](NC(=O)c1ccc(C#Cc2ccc(CNC3CC3)cc2)cc1)C(=O)NO [Compound 219]	0.4 µg/mL (≈ 0.949 µM)	1.6 µg/mL (≈ 3.8 µM)	≤ 0.1 µg/mL	0.8 µg/mL (≈ 1.9 µM)	1.6 µg/mL (≈ 3.8 µM)	0.4 µg/mL (≈ 0.949 µM)
≤ 0.1 µg/mL	0.2 µg/mL (≈ 0.444 µM)	0.2 µg/mL (≈ 0.444 µM)	≤ 0.1 µg/mL	CSC(C)(C)[C@H](NC(=O)c1ccc(C#Cc2ccc(CNCC#N)cc2)cc1)C(=O)NO [Compound 246]	0.8 µg/mL (≈ 1.78 µM)	0.4 µg/mL (≈ 0.888 µM)	≤ 0.1 µg/mL	0.4 µg/mL (≈ 0.888 µM)	0.8 µg/mL (≈ 1.78 µM)	0.8 µg/mL (≈ 1.78 µM)

Source: US11034650B2, “Compounds useful for treating a Mannheimia haemolytica or Histophilus somni infection” (Intervet Inc., priority 2016, dated 2021)
